Read-outs that look alike come from different tables or passages of the source.
Key:
[1] = type: in vivo, ferret (Mustela putorius furo); conditions: b.i.d.; for Bodyweight, Mean 2 (treated group) / Bodyweight, Mean Diff. (Vehicle vs. treated): Fig 3e; for Temperature, Mean 2 (treated group) / Temperature, Mean Diff. (Vehicle vs. treated): Fig 3d
SARS-CoV-2 WA1/2020 = type: in vivo, ferret (Mustela putorius furo); conditions: Fig 3b, b.i.d. Also: unit not given here.

Structure (SMILES): CC(C)C(=O)OCC1OC(C#N)(c2ccc3c(N)ncnn23)C(OC(=O)C(C)C)C1OC(=O)C(C)C (stereo not shown) [GS-621763]
- Bodyweight, Mean 2 (treated group) ([1]; Row 1 (time), 3 mg/kg): 100
- Bodyweight, Mean Diff. (Vehicle vs. treated) ([1]; Row 1 (time), 3 mg/kg): 0
- Bodyweight, Mean 2 (treated group) ([1]; Row 1 (time), 10 mg/kg): 100
- Bodyweight, Mean Diff. (Vehicle vs. treated) ([1]; Row 1 (time), 10 mg/kg): 0
- Bodyweight, Mean 2 (treated group) ([1]; Row 2 (time), 3 mg/kg): 98.83
- Bodyweight, Mean Diff. (Vehicle vs. treated) ([1]; Row 2 (time), 3 mg/kg): 1.898
- Bodyweight, Mean 2 (treated group) ([1]; Row 2 (time), 10 mg/kg): 104.7
- Bodyweight, Mean Diff. (Vehicle vs. treated) ([1]; Row 2 (time), 10 mg/kg): -3.948
- Bodyweight, Mean 2 (treated group) ([1]; Row 3 (time), 3 mg/kg): 102.4
- Bodyweight, Mean Diff. (Vehicle vs. treated) ([1]; Row 3 (time), 3 mg/kg): -1.11
- Bodyweight, Mean 2 (treated group) ([1]; Row 3 (time), 10 mg/kg): 103.7
- Bodyweight, Mean Diff. (Vehicle vs. treated) ([1]; Row 3 (time), 10 mg/kg): -2.374
- Bodyweight, Mean 2 (treated group) ([1]; Row 4 (time), 3 mg/kg): 104.1
- Bodyweight, Mean Diff. (Vehicle vs. treated) ([1]; Row 4 (time), 3 mg/kg): -1.927
- Bodyweight, Mean 2 (treated group) ([1]; Row 4 (time), 10 mg/kg): 106.9
- Bodyweight, Mean Diff. (Vehicle vs. treated) ([1]; Row 4 (time), 10 mg/kg): -4.724
- Bodyweight, Mean 2 (treated group) ([1]; Row 5 (time), 3 mg/kg): 105.2
- Bodyweight, Mean Diff. (Vehicle vs. treated) ([1]; Row 5 (time), 3 mg/kg): -2.7
- Bodyweight, Mean 2 (treated group) ([1]; Row 5 (time), 10 mg/kg): 107.9
- Bodyweight, Mean Diff. (Vehicle vs. treated) ([1]; Row 5 (time), 10 mg/kg): -5.412
- Temperature, Mean 2 (treated group) ([1]; Row 1 (time), 3 mg/kg): 38.95
- Temperature, Mean Diff. (Vehicle vs. treated) ([1]; Row 1 (time), 3 mg/kg): 0.2
- Temperature, Mean 2 (treated group) ([1]; Row 1 (time), 10 mg/kg): 38.53
- Temperature, Mean Diff. (Vehicle vs. treated) ([1]; Row 1 (time), 10 mg/kg): 0.625
- Temperature, Mean 2 (treated group) ([1]; Row 2 (time), 3 mg/kg): 38.75
- Temperature, Mean Diff. (Vehicle vs. treated) ([1]; Row 2 (time), 3 mg/kg): -0.075
- Temperature, Mean 2 (treated group) ([1]; Row 2 (time), 10 mg/kg): 39.03
- Temperature, Mean Diff. (Vehicle vs. treated) ([1]; Row 2 (time), 10 mg/kg): -0.35
- Temperature, Mean 2 (treated group) ([1]; Row 3 (time), 3 mg/kg): 38.78
- Temperature, Mean Diff. (Vehicle vs. treated) ([1]; Row 3 (time), 3 mg/kg): -0.1
- Temperature, Mean 2 (treated group) ([1]; Row 3 (time), 10 mg/kg): 38.85
- Temperature, Mean Diff. (Vehicle vs. treated) ([1]; Row 3 (time), 10 mg/kg): -0.175
- Temperature, Mean 2 (treated group) ([1]; Row 4 (time), 3 mg/kg): 38.93
- Temperature, Mean Diff. (Vehicle vs. treated) ([1]; Row 4 (time), 3 mg/kg): -0.275
- Temperature, Mean 2 (treated group) ([1]; Row 4 (time), 10 mg/kg): 38.73
- Temperature, Mean Diff. (Vehicle vs. treated) ([1]; Row 4 (time), 10 mg/kg): -0.075
- Temperature, Mean 2 (treated group) ([1]; Row 5 (time), 3 mg/kg): 38.73
- Temperature, Mean Diff. (Vehicle vs. treated) ([1]; Row 5 (time), 3 mg/kg): -0.15
- Temperature, Mean 2 (treated group) ([1]; Row 5 (time), 10 mg/kg): 38.2
- Temperature, Mean Diff. (Vehicle vs. treated) ([1]; Row 5 (time), 10 mg/kg): 0.375
- Transform of Nasal lavage titer, Mean 2 (treated group) (SARS-CoV-2 WA1/2020; Day 0, 3 mg/kg): 0.699
- Transform of Nasal lavage titer, Mean Diff. (Vehicle vs. treated) (SARS-CoV-2 WA1/2020; Day 0, 3 mg/kg): 0
- Transform of Nasal lavage titer, Mean 2 (treated group) (SARS-CoV-2 WA1/2020; Day 0, 10 mg/kg): 0.699
- Transform of Nasal lavage titer, Mean Diff. (Vehicle vs. treated) (SARS-CoV-2 WA1/2020; Day 0, 10 mg/kg): 0
- Transform of Nasal lavage titer, Mean 2 (treated group) (SARS-CoV-2 WA1/2020; Day 0.5, 3 mg/kg): 2.775
- Transform of Nasal lavage titer, Mean Diff. (Vehicle vs. treated) (SARS-CoV-2 WA1/2020; Day 0.5, 3 mg/kg): -0.18
- Transform of Nasal lavage titer, Mean 2 (treated group) (SARS-CoV-2 WA1/2020; Day 0.5, 10 mg/kg): 2.413
- Transform of Nasal lavage titer, Mean Diff. (Vehicle vs. treated) (SARS-CoV-2 WA1/2020; Day 0.5, 10 mg/kg): 0.1817
- Transform of Nasal lavage titer, Mean 2 (treated group) (SARS-CoV-2 WA1/2020; Day 1, 3 mg/kg): 2.834
- Transform of Nasal lavage titer, Mean Diff. (Vehicle vs. treated) (SARS-CoV-2 WA1/2020; Day 1, 3 mg/kg): 0.8732
- Transform of Nasal lavage titer, Mean 2 (treated group) (SARS-CoV-2 WA1/2020; Day 1, 10 mg/kg): 2.126
- Transform of Nasal lavage titer, Mean Diff. (Vehicle vs. treated) (SARS-CoV-2 WA1/2020; Day 1, 10 mg/kg): 1.581
- Transform of Nasal lavage titer, Mean 2 (treated group) (SARS-CoV-2 WA1/2020; Day 1.5, 3 mg/kg): 3.42
- Transform of Nasal lavage titer, Mean Diff. (Vehicle vs. treated) (SARS-CoV-2 WA1/2020; Day 1.5, 3 mg/kg): 1.236
- Transform of Nasal lavage titer, Mean 2 (treated group) (SARS-CoV-2 WA1/2020; Day 1.5, 10 mg/kg): 2.277

— article PMC8571282 (Nature Communications, 2021)
